Laboratory results published in paper PMC8851660 (ACS Omega, 2022).
Converted amounts (≈) assume the structure as drawn.

Key:
S. aureus clinical = test: microbe, parasite or virus in culture; assay type: cell-based; conditions: Staphylococcus aureus, read-out: Gram-positive MIC S. aureus clinical
E. coli MDR = test: microbe, parasite or virus in culture; assay type: cell-based; conditions: Escherichia coli, read-out: Gram-negative MIC E. coli MDR
E. coli (ATCC 25922) = test: microbe, parasite or virus in culture; assay type: cell-based; conditions: Escherichia coli, ATCC25922, read-out: Gram-negative MIC E. coli ATCC 25922
[1] = tested on: P. aeruginosa (ATCC 29853); assay type: cell-based, Pseudomonas aeruginosa
P. aeruginosa MDR = test: microbe, parasite or virus in culture; assay type: cell-based, Pseudomonas aeruginosa; conditions: for MIC: Pseudomonas aeruginosa, read-out: Gram-negative MIC P. aeruginosa MDR
C. albicans clinical = test: microbe, parasite or virus in culture; assay type: cell-based, Candida albicans; conditions: for MIC: Candida albicans, read-out: fungi MIC C. albicans clinical

Row | SMILES | MIC (S. aureus clinical) [µg/mL] | MIC (E. coli MDR) [µg/mL] | MIC (E. coli (ATCC 25922)) [µg/mL] | Gram-negative MIC P. aeruginosa (ATCC 29853) [1] [µg/mL] | Gram-negative MIC P. aeruginosa MDR (P. aeruginosa MDR) [µg/mL] | MIC (P. aeruginosa MDR) [µg/mL] | MIC (C. albicans clinical) [µg/mL] | fungi MIC C. albicans clinical (C. albicans clinical) [µg/mL]
1 | CC1(C)S[C@@H]2[C@H](NC(=O)[C@H](N)c3ccc(O)cc3)C(=O)N2[C@H]1C(=O)O [AMOX, amoxicillin, reference compound] | ≤ 7.81 | 250 (≈ 684 µM) | 62.5 (≈ 171 µM) | >500 | >500 | > 500 | – | –
2 | O=c1c(Cc2ccccc2)nc2ccccc2n1-c1ccc([N+](=O)[O-])cc1[N+](=O)[O-] [Compound 5, 3-Benzyl-1-(2,4-dinitrophenyl)quinoxalin-2(1H)-one] | 500 (≈ 1240 µM) | > 500 | > 500 | – | – | 125 (≈ 311 µM) | > 500 | –
3 | O=[N+]([O-])c1ccc(Oc2cccc3cccnc23)c([N+](=O)[O-])c1 [Compound 8, 8-(2,4-Dinitrophenoxy)quinoline] | 125 (≈ 402 µM) | 125 (≈ 402 µM) | 125 (≈ 402 µM) | – | – | 125 (≈ 402 µM) | 125 (≈ 402 µM) | –
4 | Cc1nc2ccccc2n(-c2ccc([N+](=O)[O-])cc2[N+](=O)[O-])c1=O [Compound 4, 1-(2,4-Dinitrophenyl)-3-methylquinoxalin-2(1H)-one] | 16.1 (≈ 49.4 µM) | 125 (≈ 383 µM) | 125 (≈ 383 µM) | – | – | 125 (≈ 383 µM) | 125 (≈ 383 µM) | –
5 | Cn1ccc(=O)nc1Sc1ccc([N+](=O)[O-])cc1[N+](=O)[O-] [Compound 7, 2-[(2,4-Dinitrophenyl)thio]-1-methylpyrimidin-4(1H)-one] | 32.2 (≈ 105 µM) | 125 (≈ 405 µM) | 64.5 (≈ 209 µM) | – | – | 125 (≈ 405 µM) | 16.1 (≈ 52.3 µM) | –
6 | CC(C)(C)c1cccc(C(C)(C)C)c1Oc1ccc([N+](=O)[O-])cc1[N+](=O)[O-] [Compound 9, 1,3-Di-tert-butyl-2-(2,4-dinitrophenoxy)benzene] | 500 (≈ 1340 µM) | 125 (≈ 336 µM) | > 500 | – | – | 125 (≈ 336 µM) | > 500 | –
7 | O=[N+]([O-])c1ccc(Sc2nc3ccccc3s2)c([N+](=O)[O-])c1 [Compound 6, 2-[(2,4-Dinitrophenyl)thio]benzo[d]thiazole] | 500 (≈ 1500 µM) | > 500 | 500 (≈ 1500 µM) | – | – | 125 (≈ 375 µM) | 500 (≈ 1500 µM) | –
8 | O=[N+]([O-])c1ccc(-n2ccnc2)c([N+](=O)[O-])c1 [Compound 11, 1-(2,4-Dinitrophenyl)-1H-imidazole] | 125 (≈ 534 µM) | 125 (≈ 534 µM) | 125 (≈ 534 µM) | – | – | 125 (≈ 534 µM) | 125 (≈ 534 µM) | –
9 | C[C@@H]1[C@H](O)[C@@H](C)/C=C/C=C/CC/C=C/C=C/C=C/C=C/C(O[C@H]2O[C@H](C)[C@@H](O)[C@H](N)[C@@H]2O)CC2O[C@](O)(CC(O)C(O)CCC(O)CC(O)CC(O)CC(=O)O[C@H]1C)CC(O)C2C(=O)O (stereo partly drawn) [NYS, nystatin, reference compound] | – | – | – | – | – | – | – | <2
